Data taken from patent US10072017B2, “Compounds and methods for the treatment of cystic fibrosis” (Flatley Discovery Lab, LLC, priority 2015, dated 2018).

Target: T1, CFTR (Homo sapiens, UniProt P13569, DEL508-508)
T1 construct: Primary CF airway epithelial cells were obtained from the UNC Cystic Fibrosis Tissue Procurement and Cell Culture Core; host or cells: primary CF airway epithelial cells
Assay: Equivalent current assay in Primary CF airway epithelial cells (NAUC)
Assay type: cell-based
Settings: 24 h, normalized to VX809 (3 μM) positive control; for Nauc @ 3 μM: 3 μM test compound; for Nauc @ 10 μM: 10 μM test compound
In short: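 Primary CF airway epithelia differentiated ≥4 weeks at air-liquid interface, treated basolaterally 24 h at 37 °C with test compounds in combination with VX809, 0.1% DMSO vehicle. Equivalent current recorded after 5 μM benzamil, 10 μM forskolin plus 1 μM VX770, then CFTR-172/bumetanide 20 μM; vehicle-subtracted AUC normalized to 3 μM VX809 (NAUC), median of n≥4, sigmoid fit for EC50.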

T1 sequence (P13569 with tags, fused parts or gaps DEL508-508): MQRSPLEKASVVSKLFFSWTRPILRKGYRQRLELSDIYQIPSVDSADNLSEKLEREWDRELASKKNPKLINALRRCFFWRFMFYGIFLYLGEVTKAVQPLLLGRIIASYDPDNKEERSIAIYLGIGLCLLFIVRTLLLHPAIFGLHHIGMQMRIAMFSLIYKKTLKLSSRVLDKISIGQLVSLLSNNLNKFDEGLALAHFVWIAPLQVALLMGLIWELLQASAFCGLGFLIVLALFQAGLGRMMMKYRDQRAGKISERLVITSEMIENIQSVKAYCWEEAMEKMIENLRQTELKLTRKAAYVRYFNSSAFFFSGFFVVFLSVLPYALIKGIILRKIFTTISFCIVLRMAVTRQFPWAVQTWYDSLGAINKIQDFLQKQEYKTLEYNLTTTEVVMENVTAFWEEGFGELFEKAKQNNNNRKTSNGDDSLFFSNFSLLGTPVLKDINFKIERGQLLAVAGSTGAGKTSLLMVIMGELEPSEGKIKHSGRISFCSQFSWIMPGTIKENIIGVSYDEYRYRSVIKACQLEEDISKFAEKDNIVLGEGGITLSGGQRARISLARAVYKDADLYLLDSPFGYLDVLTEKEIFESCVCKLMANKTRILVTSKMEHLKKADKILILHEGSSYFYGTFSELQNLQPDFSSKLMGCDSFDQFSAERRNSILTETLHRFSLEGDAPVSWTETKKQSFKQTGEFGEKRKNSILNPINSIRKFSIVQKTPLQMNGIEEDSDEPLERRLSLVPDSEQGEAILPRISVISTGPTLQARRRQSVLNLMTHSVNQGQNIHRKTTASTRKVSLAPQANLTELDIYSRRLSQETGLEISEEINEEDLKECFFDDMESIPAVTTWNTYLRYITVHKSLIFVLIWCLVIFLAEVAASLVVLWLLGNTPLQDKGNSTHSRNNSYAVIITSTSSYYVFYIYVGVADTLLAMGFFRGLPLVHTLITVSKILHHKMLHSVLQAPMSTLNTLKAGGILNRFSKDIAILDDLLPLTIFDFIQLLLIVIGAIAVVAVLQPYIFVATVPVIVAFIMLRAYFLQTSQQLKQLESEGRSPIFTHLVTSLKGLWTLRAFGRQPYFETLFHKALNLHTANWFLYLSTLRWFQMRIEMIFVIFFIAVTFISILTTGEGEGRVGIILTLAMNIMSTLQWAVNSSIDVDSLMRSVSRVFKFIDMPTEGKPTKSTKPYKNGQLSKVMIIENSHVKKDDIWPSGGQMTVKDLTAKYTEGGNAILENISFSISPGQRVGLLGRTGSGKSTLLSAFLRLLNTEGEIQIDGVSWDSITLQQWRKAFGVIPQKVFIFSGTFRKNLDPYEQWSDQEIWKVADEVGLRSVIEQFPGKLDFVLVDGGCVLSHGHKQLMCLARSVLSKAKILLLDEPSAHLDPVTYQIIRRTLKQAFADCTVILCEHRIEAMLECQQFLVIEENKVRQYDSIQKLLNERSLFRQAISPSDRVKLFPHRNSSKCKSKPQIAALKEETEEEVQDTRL

SMILES	Nauc @ 3 μM	Nauc @ 10 μM
O=C1C2C3CC(=C(F)F)CN3C3(C(=O)Nc4c(Cl)cc(Cl)cc43)C2C(=O)N1c1cc(Cl)cc(Cl)c1 (centres unmarked) [Example 100]	+++ (NAUC “+++” refers to an observed NAUC >170% of positive control)	+++ (NAUC “+++” refers to an observed NAUC >170% of positive control)
Cc1csc(N2C(=O)C3C4CCCN4C4(C(=O)Nc5c(Cl)cc(Cl)cc54)C3C2=O)n1 (centres unmarked) [Example 101]	+ (NAUC “+” refers to an observed NAUC <140% of positive control)	+++ (NAUC “+++” refers to an observed NAUC >170% of positive control)
O=C1C2C3CCCN3C3(C(=O)Nc4ccc(C(F)(F)F)cc43)C2C(=O)N1c1cc(Cl)cc(Cl)n1 (centres unmarked) [Example 102]	+ (NAUC “+” refers to an observed NAUC <140% of positive control)	++ (NAUC “++” refers to an observed NAUC 170-140% of positive control)
CC1(C)CC2C3C(=O)N(c4cc(Cl)cc(Cl)c4)C(=O)C3C3(C(=O)Nc4c(Cl)cc(Cl)cc43)N2C1 (centres unmarked) [Example 103]	++ (NAUC “++” refers to an observed NAUC 170-140% of positive control)	+++ (NAUC “+++” refers to an observed NAUC >170% of positive control)
O=C1C2C3C[C@H](CF)CN3C3(C(=O)Nc4c(Cl)cc(Cl)cc43)C2C(=O)N1c1cc(Cl)cc(Cl)c1 (some centres unmarked) [Example 109]	++ (NAUC “++” refers to an observed NAUC 170-140% of positive control)	++ (NAUC “++” refers to an observed NAUC 170-140% of positive control)
COc1cccc(N2C(=O)C3C4C[C@H](Cl)CN4C4(C(=O)Nc5c(Cl)cc(Cl)cc54)C3C2=O)c1 (some centres unmarked) [Example 113]	+ (NAUC “+” refers to an observed NAUC <140% of positive control)	++ (NAUC “++” refers to an observed NAUC 170-140% of positive control)
COc1cc(Cl)cc(N2C(=O)C3C4CC(=C(F)F)CN4C4(C(=O)Nc5c(Cl)cc(Cl)cc54)C3C2=O)c1 (centres unmarked) [Example 117]	+++ (NAUC “+++” refers to an observed NAUC >170% of positive control)	+++ (NAUC “+++” refers to an observed NAUC >170% of positive control)
COc1c(Cl)cc(N2C(=O)C3C4CC(=C(F)F)CN4C4(C(=O)Nc5c(Cl)cc(Cl)cc54)C3C2=O)cc1Cl (centres unmarked) [Example 121]	++ (NAUC “++” refers to an observed NAUC 170-140% of positive control)	++ (NAUC “++” refers to an observed NAUC 170-140% of positive control)
O=C1C2C3CC(=C(F)F)CN3C3(C(=O)Nc4c(Cl)cc(Cl)cc43)C2C(=O)N1c1cc(Cl)cc(Cl)n1 (centres unmarked) [Example 122]	+++ (NAUC “+++” refers to an observed NAUC >170% of positive control)	+ (NAUC “+” refers to an observed NAUC <140% of positive control)
O=C1C2C3CC(=C(F)F)CN3C3(C(=O)Nc4c(Cl)cc(Cl)cc43)C2C(=O)N1c1cc(Br)cc(Br)c1 (centres unmarked) [Example 123]	+ (NAUC “+” refers to an observed NAUC <140% of positive control)	+++ (NAUC “+++” refers to an observed NAUC >170% of positive control)
O=C1C2C3CC(=C(F)F)CN3C3(C(=O)Nc4c(Cl)cc(Cl)cc43)C2C(=O)N1c1cc(F)cc(Cl)c1 (centres unmarked) [Example 124]	+ (NAUC “+” refers to an observed NAUC <140% of positive control)	++ (NAUC “++” refers to an observed NAUC 170-140% of positive control)
O=C1C2C3CC(=C(F)F)CN3C3(C(=O)Nc4c(Cl)cc(Cl)cc43)C2C(=O)N1c1cc(C(F)(F)F)cc(C(F)(F)F)c1 (centres unmarked) [Example 125]	+++ (NAUC “+++” refers to an observed NAUC >170% of positive control)	+ (NAUC “+” refers to an observed NAUC <140% of positive control)
O=C1C2C3CC(=C(F)F)CN3C3(C(=O)Nc4c(Cl)cc(Cl)cc43)C2C(=O)N1c1cccc(C(F)(F)F)c1 (centres unmarked) [Example 126]	+++ (NAUC “+++” refers to an observed NAUC >170% of positive control)	+++ (NAUC “+++” refers to an observed NAUC >170% of positive control)
COc1cc(Cl)cc(N2C(=O)C3C4CC(C)(C)CN4C4(C(=O)Nc5c(Cl)cc(Cl)cc54)C3C2=O)c1 (centres unmarked) [Example 127]	++ (NAUC “++” refers to an observed NAUC 170-140% of positive control)	+ (NAUC “+” refers to an observed NAUC <140% of positive control)
Cc1ccc(N2C(=O)C3C4CCCN4C4(C(=O)Nc5c(C)cccc54)C3C2=O)c(Cl)c1 (centres unmarked) [Example 128]	++ (NAUC “++” refers to an observed NAUC 170-140% of positive control)	+ (NAUC “+” refers to an observed NAUC <140% of positive control)
CC1(C)CC2C3C(=O)N(c4cc(Cl)cc(Cl)n4)C(=O)C3C3(C(=O)Nc4c(Cl)cc(Cl)cc43)N2C1 (centres unmarked) [Example 129]	++ (NAUC “++” refers to an observed NAUC 170-140% of positive control)	++ (NAUC “++” refers to an observed NAUC 170-140% of positive control)
COc1cc(Cl)cc(N2C(=O)C3C4CC(C(F)F)CN4C4(C(=O)Nc5c(Cl)cc(Cl)cc54)C3C2=O)c1 (centres unmarked) [Example 130]	+ (NAUC “+” refers to an observed NAUC <140% of positive control)	++ (NAUC “++” refers to an observed NAUC 170-140% of positive control)
O=C1C2C3CC(C(F)F)CN3C3(C(=O)Nc4c(Cl)cc(Cl)cc43)C2C(=O)N1c1cc(Cl)cc(Cl)n1 (centres unmarked) [Example 131]	+ (NAUC “+” refers to an observed NAUC <140% of positive control)	++ (NAUC “++” refers to an observed NAUC 170-140% of positive control)
O=C1C2C3CC(C(F)F)CN3C3(C(=O)Nc4c(Cl)cc(Cl)cc43)C2C(=O)N1c1cc(Cl)nc(Cl)c1 (centres unmarked) [Example 132]	+ (NAUC “+” refers to an observed NAUC <140% of positive control)	++ (NAUC “++” refers to an observed NAUC 170-140% of positive control)
O=C1C2C3CC(C(F)F)CN3C3(C(=O)Nc4c(Cl)cc(Cl)cc43)C2C(=O)N1c1cc(F)cc(Cl)c1 (centres unmarked) [Example 133]	++ (NAUC “++” refers to an observed NAUC 170-140% of positive control)	++ (NAUC “++” refers to an observed NAUC 170-140% of positive control)
O=C1C2C3CC(C(F)F)CN3C3(C(=O)Nc4c(Cl)cc(Cl)cc43)C2C(=O)N1c1cccc(C(F)(F)F)c1 (centres unmarked) [Example 134]	+ (NAUC “+” refers to an observed NAUC <140% of positive control)	++ (NAUC “++” refers to an observed NAUC 170-140% of positive control)
CC(=O)N[C@H]1CC2C3C(=O)N(c4cc(Cl)cc(Cl)c4)C(=O)C3C3(C(=O)Nc4c(Cl)cc(Cl)cc43)N2C1 (some centres unmarked) [Example 135]	+++ (NAUC “+++” refers to an observed NAUC >170% of positive control)	+ (NAUC “+” refers to an observed NAUC <140% of positive control)
O=C1C2C3CC(C(F)F)CN3C3(C(=O)Nc4c(Cl)cc(Cl)cc43)C2C(=O)N1c1cc(Cl)cc(Cl)c1 (centres unmarked) [Example 136]	+++ (NAUC “+++” refers to an observed NAUC >170% of positive control)	+++ (NAUC “+++” refers to an observed NAUC >170% of positive control)
O=C1C2C3CC(C(F)F)CN3C3(C(=O)Nc4c(Cl)cc(Cl)cc43)C2C(=O)N1c1cc(Cl)cc(Cl)c1 (centres unmarked) [Example 137]	+++ (NAUC “+++” refers to an observed NAUC >170% of positive control)	+++ (NAUC “+++” refers to an observed NAUC >170% of positive control)
[2H]C12C(=O)N(c3cc(Cl)cc(OC)c3)C(=O)C1([2H])C1(C(=O)Nc3c(Cl)cc(Cl)cc31)N1C[C@@H](F)CC12 (some centres unmarked) [Example 145]	+ (NAUC “+” refers to an observed NAUC <140% of positive control)	+++ (NAUC “+++” refers to an observed NAUC >170% of positive control)
[2H]C12C(=O)N(c3cc(Cl)cc(OC)c3)C(=O)C1([2H])C1(C(=O)Nc3c(Cl)cc(Cl)cc31)N1C[C@@H](Cl)CC12 (some centres unmarked) [Example 146]	+++ (NAUC “+++” refers to an observed NAUC >170% of positive control)	+++ (NAUC “+++” refers to an observed NAUC >170% of positive control)
[2H]C12C(=O)N(c3cc(Cl)cc(Cl)c3)C(=O)C1([2H])C1(C(=O)Nc3c(Cl)cc(Cl)cc31)N1CC(C)(C)CC12 (centres unmarked) [Example 147]	+++ (NAUC “+++” refers to an observed NAUC >170% of positive control)	+++ (NAUC “+++” refers to an observed NAUC >170% of positive control)
[2H]C12C(=O)N(c3cc(Cl)c(OC)c(Cl)c3)C(=O)C1([2H])C1(C(=O)Nc3c(Cl)cc(Cl)cc31)N1C[C@@H](Cl)CC12 (some centres unmarked) [Example 148]	+++ (NAUC “+++” refers to an observed NAUC >170% of positive control)	+++ (NAUC “+++” refers to an observed NAUC >170% of positive control)
